Reference: patent US6673772B2, “Dipeptide compounds and their use as antiviral agents” (Sumitomo Pharmaceuticals Company Limited, priority 2000, dated 2004)

test system: HIV virus (HIV-1 IIIB strain); experiment: Measurement of anti-HIV activity (cytopathic effect, XTT) in CEM-SS cells; assay type: cell-based; settings: 6 days, in the presence of 50% human plasma
Protocol: Measurement of anti-HIV activity
The anti-HIV activity of the compounds synthesized Examples 1-15 and Reference Examples 1-4 was measured according to the method reported by 0. S. Weislow et al. (J. Natl. Cancer Inst. 81, 577-586, 1989) using CEM-SS cells as host cells and HIV virus (HIV-1 IIIB strain)(see T. Mimoto et al., J. Med. Chem., 42, 1789-1802, 1999, etc.).
Specifically, the compounds synthesized Examples 1-15 and […] in various concentrations were added to a culture medium on 96-well microtiter plates. Human blood serum was added to a final concentration of 50%, then HIV infected CEM-SS cells was added, followed by incubation in a CO2 atmosphere at 37° C. for 6 days. The cytopathic effect induced by HIV-1 IIIB was measured by tetrazolium dye XTT dyeing method to evaluate the 50% inhibitory concentration (IC50).

With `Cc1ccc(C[C@H](NC(=O)c2cccc(O)c2C)[C@H](O)C(=O)N2CSC(C)(C)[C@H]2C(=O)NCc2ccccc2C)cc1` [Ex. 9, (R)-N-(2-methylbenzyl)-3-[(2S,3S)-2-hydroxy-3-(3-hydroxy-2-methylbenzoyl)amino-4-(4-metylphenyl)butanoyl]-5,5-dimethyl-1,3-thiazolidine-4-carboxamide] as the molecule, how does the “Anti-HIV IC50” value read?
Its value is 0.02 µg/mL.

molecular target: T1, recombinant HIV-1 protease (Human immunodeficiency virus type 1 group M subtype B, UniProt P04585); experiment: Measurement of HIV protease inhibitory activity; assay type: biochemical; settings: 50 nM compound; 10.5 nM HIV-1 protease, pH 6.5, 37° C., 60 minutes
T1 construct: 10.5 nM HIV-1 protease
Protocol: Measurement of HIV protease inhibitory activity
The protease inhibitory activity was measured according to the method reported by T. Mimoto et al., J. Med. Chem., 42, 1789-1802 (1999) by using a recombinant HIV-1 protease (see Biochemistry, 250, 9, 264 (1990)) and a synthesized peptide substrate (H-Ser-Gln-Asn-Tyr-Pro-Ile-Val-OH). Specifically, reaction solutions (15 μl each) containing any one of the compounds synthesized in the above Examples 1-15 and Reference Examples 1-4, an inhibitor in which a known anti-AIDS agent (nelfinavir) is dissolved in DMSO in different concentrations, 10.5 nM HIV-1 protease, 20 mM synthesized peptide substrate, and 100 mM MES buffer solution (pH 6.5) were incubated at 37° C. for 60 minutes. Peptide fragments produced by cleaving the Tyr-Pro bonds in the synthesized peptide substrate was quantitatively measured by reverse phase HPLC.

For `Cc1ccc(C[C@H](NC(=O)c2cccc(O)c2C)[C@H](O)C(=O)N2CSC(C)(C)[C@H]2C(=O)NCc2ccccc2C)cc1` [Ex. 9, (R)-N-(2-methylbenzyl)-3-[(2S,3S)-2-hydroxy-3-(3-hydroxy-2-methylbenzoyl)amino-4-(4-metylphenyl)butanoyl]-5,5-dimethyl-1,3-thiazolidine-4-carboxamide], which “HIV protease inhibition rate (%) at 50 nM” value is on record?
Its value is 97%.

same assay, conditions: 50 nM compound; 10.5 nM HIV-1 protease, pH 6.5, 37° C., 60 minutes; read-out: HIV protease inhibition rate (%) at 50 nM

For `COc1ccc(C[C@H](NC(=O)c2cccc(O)c2C)[C@H](O)C(=O)N2CSC(C)(C)[C@H]2C(=O)NCc2ccccc2C)cc1` [Ex. 1, (R)-N-(2-methylbenzyl)-3-[(2S,3S)-2-hydroxy-3-(3-hydroxy-2-methylbenzoyl)amino-4-(4-methoxyphenyl)butanoyl]-5,5-dimethyl-1,3-thiazolidine-4-carboxamide], which inhibition at 0.05 µM is on record?
The inhibition at 0.05 µM was 95%.

With `COc1ccc(C[C@H](NC(=O)c2cccc(O)c2C)[C@H](O)C(=O)N2CSC(C)(C)[C@H]2C(=O)NCc2cc(F)ccc2C)cc1` [Ex. 2, (R)-N-(5-fluoro-2-methylbenzyl)-3-[(2S,3S)-2-hydroxy-3-(3-hydroxy-2-methyl-benzoyl)amino-4-(4-methoxyphenyl)butanoyl]-5,5-dimethyl-1,3-thiazolidine-4-carboxamide] as the molecule, how does the inhibition at 0.05 µM read?
Its inhibition at 0.05 µM is 97%.

For `COc1ccc(C[C@H](NC(=O)c2ccc(F)c(O)c2C)[C@H](O)C(=O)N2CSC(C)(C)[C@H]2C(=O)NCc2ccccc2C)cc1` [Ex. 3, (R)-N-(2-methylbenzyl)-3-[(2S,3S)-2-hydroxy-3-(4-fluoro-3-hydroxy-2-methyl-benzoyl)amino-4-(4-methoxyphenyl)butanoyl]5,5-dimethyl-1,3-thiazolidine-4-carboxamide], which inhibition at 0.05 µM is on record?
Its inhibition at 0.05 µM is 93%.

Which inhibition at 0.05 µM does the source give for `COc1ccc(C[C@H](NC(=O)c2cccc(N)c2Cl)[C@H](O)C(=O)N2CSC(C)(C)[C@H]2C(=O)NCc2ccccc2C)cc1` [Ex. 4, (R)-N-(2-methylbenzyl)-3-[(2S,3S)-2-hydroxy-3-(3-amino-2-chlorobenzoyl)amino-4-(4-methoxyphenyl)butanoyl]-5,5-dimethyl-1,3-thiazolidine-4-carboxamide] here?
Its inhibition at 0.05 µM is 91%.

With `CCOc1ccc(C[C@H](NC(=O)c2cccc(O)c2C)[C@H](O)C(=O)N2CSC(C)(C)[C@H]2C(=O)NCc2ccccc2C)cc1` [Ex. 5, (R)-N-(2-methylbenzyl)-3-[(2S,3S)-2-hydroxy-3-(3-hydroxy-2-methylbenzoyl)amino-4-(4-ethoxyphenyl)butanoyl]-5,5-dimethyl-1,3-thiazolidine-4-carboxamide] as the molecule, how does the inhibition at 0.05 µM read?
The inhibition at 0.05 µM was 95%.

With `Cc1ccccc1CNC(=O)[C@H]1N(C(=O)[C@@H](O)[C@H](Cc2ccc3c(c2)OCO3)NC(=O)c2cccc(O)c2C)CSC1(C)C` [Ex. 6, (R)-N-(2-methylbenzyl)-3-[(2S,3S)-2-hydroxy-3-(3-hydroxy-2-methylbenzoyl)amino-4-(3,4-methylenedioxyphenyl)butanoyl]-5,5-dimethyl-1,3-thiazolidine-4-carboxamide] as the molecule, how does the inhibition at 0.05 µM read?
Its inhibition at 0.05 µM is 97%.

For `CCCOc1ccc(C[C@H](NC(=O)c2cccc(O)c2C)[C@H](O)C(=O)N2CSC(C)(C)[C@H]2C(=O)NCc2ccccc2C)cc1` [Ex. 7, (R)-N-(2-methylbenzyl)-3-[(2S,3S)-2-hydroxy-3-(3-hydroxy-2-methylbenzoyl)amino-4-(4-n-propoxyphenyl)butanoyl]-5,5-dimethyl-1,3-thiazolidine-4-carboxamide], which inhibition at 0.05 µM is on record?
The inhibition at 0.05 µM was 97%.

Which inhibition at 0.05 µM does the source give for `Cc1ccccc1CNC(=O)[C@H]1N(C(=O)[C@@H](O)[C@H](Cc2ccc(OC(C)C)cc2)NC(=O)c2cccc(O)c2C)CSC1(C)C` [Ex. 8, (R)-N-(2-methylbenzyl)-3-[(2S,3S)-2-hydroxy-3-(3-hydroxy-2-methylbenzoyl)amino-4-(4-isopropoxyphenyl)butanoyl]-5,5-dimethyl-1,3-thiazolidine-4-carboxamide] here?
The inhibition at 0.05 µM was 96%.

With `Cc1ccccc1CNC(=O)[C@H]1N(C(=O)[C@@H](O)[C@H](Cc2ccc(C(C)C)cc2)NC(=O)c2cccc(O)c2C)CSC1(C)C` [Ex. 10, (R)-N-(2-methylbenzyl)-3-[(2S,3S)-2-hydroxy-3-(3-hydroxy-2-methylbenzoyl)amino-4-(4-isopropylphenyl)butanoyl]-5,5-dimethyl-1,3-thiazolidine-4-carboxamide] as the molecule, how does the inhibition at 0.05 µM read?
Its inhibition at 0.05 µM is 96%.

With `Cc1ccccc1CNC(=O)[C@H]1N(C(=O)[C@@H](O)[C@H](Cc2ccc(Cl)cc2)NC(=O)c2cccc(O)c2C)CSC1(C)C` [Ex. 11, (R)-N-(2-methylbenzyl)-3-[(2S,3S)-2-hydroxy-3-(3-hydroxy-2-methylbenzoyl)amino-4-(4-chlorophenyl)butanoyl]-5,5-dimethyl-1,3-thiazolidine-4-carboxamide] as the molecule, how does the inhibition at 0.05 µM read?
Its inhibition at 0.05 µM is 97%.

With `CCOc1ccc(C[C@H](NC(=O)c2cccc(N)c2Cl)[C@H](O)C(=O)N2CSC(C)(C)[C@H]2C(=O)NCc2ccccc2C)cc1` [Ex. 12, (R)-N-(2-methylbenzyl)-3-[(2S,3S)-2-hydroxy-3-(3-amino-2-chlorobenzoyl)amino-4-(4-ethoxyphenyl)butanoyl]-5,5-dimethyl-1,3-thiazolidine-4-carboxamide] as the molecule, how does the inhibition at 0.05 µM read?
Its inhibition at 0.05 µM is 89%.

For `Cc1ccccc1CNC(=O)[C@H]1N(C(=O)[C@@H](O)[C@H](Cc2ccc3c(c2)OCO3)NC(=O)c2cccc(N)c2Cl)CSC1(C)C` [Ex. 13, (R)-N-(2-methylbenzyl)-3-[(2S,3S)-2-hydroxy-3-(3-amino-2-chlorobenzoyl)amino-4-(3,4-methylenedioxyphenyl)butanoyl]-5,5-dimethyl-1,3-thiazolidine-4-carboxamide], which inhibition at 0.05 µM is on record?
The inhibition at 0.05 µM was 95%.

For `COc1ccc(C[C@H](NC(=O)c2cccc(N)c2Cl)[C@H](O)C(=O)N2CSC(C)(C)[C@H]2C(=O)NCc2c(C)cccc2C)cc1` [Ex. 14, (R)-N-(2,6-dimethylbenzyl)-3-[(2S,3S)-2-hydroxy-3-(3-amino-2-chlorobenzoyl)amino-4-(4-methoxyphenyl)butanoyl]-5,5-dimethyl-1,3-thiazolidine-4-carboxamide], which inhibition at 0.05 µM is on record?
Its inhibition at 0.05 µM is 92%.

For `Cc1cccc(C)c1CNC(=O)[C@H]1N(C(=O)[C@@H](O)[C@H](Cc2ccc3c(c2)OCO3)NC(=O)c2cccc(N)c2Cl)CSC1(C)C` [Ex. 15, (R)-N-(2,6-dimethylbenzyl)-3-[(2S,3S)-2-hydroxy-3-(3-amino-2-chlorobenzoyl)amino-4-(3,4-methylenedioxyphenyl)butanoyl]-5,5-dimethyl-1,3-thiazolidine-4-carboxamide], which inhibition at 0.05 µM is on record?
Its inhibition at 0.05 µM is 96%.

Which inhibition at 0.05 µM does the source give for `Cc1c(O)cccc1C(=O)N[C@@H](CSc1ccccc1)[C@H](O)CN1C[C@H]2CCCC[C@H]2C[C@H]1C(=O)NC(C)(C)C` [Re. 5, nelfinavir, reference compound] here?
The inhibition at 0.05 µM was 93%.

test system: not listed separately; experiment: Plasma concentration after intraduodenal administration to rats; assay type: in vivo; settings: Sprague-Dawley, other: into the duodenum, rat, 10 mg/kg into the duodenum, 30 minutes after the administration
Protocol: A pharmacological experiment of the compound of the present invention was carried out using Sprague-Dawley rats (300-400 g). 10 mg/kg of a 50% polyethylene glycol (PEG) solution (1 ml/kg) was administered into the duodenum under anesthesia and blood was collected over time. After the addition of a solvent, the collected blood plasma sample was shaken and centrifuged. The organic layer was concentrated and dissolved in 50% methanol. The sample thus obtained was analyzed by HPLC for the determination of concentration of the compound in plasma. The HPLC analysis was carried out using Capecellpak C18 (4.6×150 mm, Shiseido LTD) as a column and a mixed solvent of 0.1% TFA aqueous solution and acetonitrile as an eluent (see T. Mimoto et al. J. Med. Chem., 42, 1789-1802, 1999).
The compound of the present invention was confirmed to have pharmacological characteristics expected as an in vivo effect of the compound. For instance, when the compound of Example 1 of the present invention is administered to a rat at a dose of 10 mg/kg into the duodenum, the compound is detected in plasma of the rat at a concentration of 0.42 μg/ml 30 minutes after the administration.

Which concentration at 30 min does the source give for `COc1ccc(C[C@H](NC(=O)c2cccc(O)c2C)[C@H](O)C(=O)N2CSC(C)(C)[C@H]2C(=O)NCc2ccccc2C)cc1` [Ex. 1, (R)-N-(2-methylbenzyl)-3-[(2S,3S)-2-hydroxy-3-(3-hydroxy-2-methylbenzoyl)amino-4-(4-methoxyphenyl)butanoyl]-5,5-dimethyl-1,3-thiazolidine-4-carboxamide] here?
The concentration at 30 min was 420 ng/mL.

test system: human plasma; experiment: Protein binding to human plasma (ultrafiltration, unbound ratio); assay type: in vitro ADME; settings: concentration 1 μM; from regression line of FIG. 1; 18 hours at 37° C.
Protocol: Measurement of protein binding rate […] Freezed human plasma (HFFPP100) was used after thawing. Powder of human alpha 1-acid glycoprotein (supplied by SIGMA Co., hereinafter abbreviated to AAG) was dissolved in a phosphate buffer solution (PBS, pH 7.0) to a concentration of 1 mg/ml. […] Quantitative determination of unbound drug concentration […] All amount of the solution was transferred to Micropartition Devices (Centrifree®, Millipore Co.) and filtered by centrifugation at 1500 ×g for 20 minutes (using TOMY CX-210 high-speed cooling centrifugal machine). 200 μl of the filtrate was directly subjected to HPLC (Type: HITACHI D-7000, column: COSMOSIL (4.6* 250 mm, manufactured by Nacalai Tesque Co., Ltd.). The HPLC analysis was carried out by using a 59:41 (v/v) water-acetonitrile mixture containing 0.1% trifluoroacetic acid (TFA) as a mobile phase and measuring absorbance at 210 nm. The quantitative determination of unbound drug concentration was carried out based on the absolute calibration curve method using a calibration line obtained from the analysis of a standard sample which contains the drug at a known concentration. Analysis of protein binding properties A commonly accepted method (see Y. Odagiri et al., Protein Binding Experimental Method (1991), Hirokawa Publishing Co., Ltd.) was employed for the analysis of protein binding properties. […]

Which “ratio of unbound drug (human plasma)” value does the source give for `COc1ccc(C[C@H](NC(=O)c2cccc(O)c2C)[C@H](O)C(=O)N2CSC(C)(C)[C@H]2C(=O)NCc2ccccc2C)cc1` [Ex. 1, (R)-N-(2-methylbenzyl)-3-[(2S,3S)-2-hydroxy-3-(3-hydroxy-2-methylbenzoyl)amino-4-(4-methoxyphenyl)butanoyl]-5,5-dimethyl-1,3-thiazolidine-4-carboxamide] here?
The value was 0.029.
